Columns and labels:
[1] = test system: cirrhotic patients with HE; assay: Cognitive performance, HE patients on rifaximin vs only on lactulose (Example 2); format: in vivo, human
Text: Patients with cirrhosis with or without HE were included for a one-time visit. We excluded patients with a current infection (defined by elevated white blood cell (WBC) count, clinical suspicion or fever), variceal bleeding within the last 4 weeks, on gut-absorbable antibiotics, or had alcohol or illicit drug intake within 3 months (checked by drug and alcohol screens). […] Patients in the “HE” group had suffered at least one HE episode within the last 3 months and were currently controlled on lactulose alone or lactulose with rifaximin.
During the visit, the subjects underwent a physical examination and measurement of body mass index (BMI), detailed analysis of medical records including current medications, a detailed dietary recall and collection of stool and blood samples. All subjects underwent a mini-mental status exam and only those scoring above 25 were included in the full study (14). Subsequently a recommended cognitive battery consisting of the following tests was administered; (a) Psychometric hepatic encephalopathy score (PHES), (b) block design test (subjects are required to replicate designs with given blocks in a timed manner) and (c) Inhibitory control test [ICT: Subjects are instructed to respond to alternating presentations of X and Y on the screen (targets) while inhibiting response when X and Y are not alternating (lures)] (5, 41). The PHES consists of number connection test-A/B (subjects are asked to “join the dots” between numbers or numbers and alphabets in a timed fashion), digit symbol (subjects are required to copy corresponding figures from a given list within 2 minutes), line drawing (time) and (errors): subjects are required to trace a line between two parallel lines and balance between speed and accuracy. Time required and the number of times the subject's line strays beyond the marked lines (errors) are recorded] and serial dotting (subjects are asked to dot the center of a group of blank circles)]. The PHES is a validated battery for cognitive dysfunction in cirrhosis and tests for psychomotor speed, visuo-motor coordination, attention and set-shifting(32). Block design tests for visuo-motor coordination. A high score on block, digit symbol and ICT targets and a low score on the rest indicate good performance.
Statistical analysis: Cirrhotics with HE were compared to those without HE with respect to BMI, inflammatory markers, cognitive performance and microbiome constituents. Unpaired t-tests were used to compare demographics, cognitive tests and inflammatory markers. Since the microbiome constituents tend to be sparse and non-parametrically distributed, we used Metastats to compare microbiome between stool and mucosa of patients with and without HE (42). Metastats performs statistical analysis (to investigate metagenomic differences) along with biomarker discovery (to evaluate specific features underlying these differences) based on repeated t statistics and Fisher's tests on random permutations (34). We also performed Metastats analysis between the mucosal microbiome compared to the stool microbiome in patients with HE and without HE and those in HE on or not on rifaximin. Principal Component Analysis (PCO) on the abundance tables and weighted and unweighted UNIFRAC analysis using the QIIME pipeline were also performed (22, 25). Subsequently, we analyzed the correlations between MELD score, BMI, inflammatory markers, cognitive tests and microbiome constituents using a correlation network analysis obtained through a customized statistical script in R (7) using a P-value cutoff of <0.05 and an R value >0.5 to identify the most significant relationships (4, 16).

[2] = test system: mucosal microbiome; assay: Colonic mucosal microbiome by MTPS, compared using Metastats (Example 2); format: in vivo, human; conditions: colonic mucosa, HE patients
Description: Interrogation of the Microbiome: Stool was collected and DNA extracted for microbiome analysis using published techniques (30). A subset underwent an un-sedated, unprepared flexible sigmoidoscopy during which a pinch biopsy of the recto-sigmoid mucosa was obtained, which was snap-frozen and stored at −80° C. till the analysis. We first use Length Heterogeneity PCR (LH-PCR) fingerprinting of the 16S rRNA to rapidly survey samples and standardize the community amplification. We then interrogated the microbial taxa associated with the gut fecal microbiome using Multitag Pyrosequencing (MTPS) (16). This technique allows for rapid sequencing of multiple samples at one time yielding thousands of sequence reads per sample.
Microbiome Community Fingerprinting: LH-PCR was done to standardize the community analysis as previously published. Briefly, total genomic DNA was extracted from tissue using Bio101 kit from MP Biomedicals Inc., Montreal, Quebec as per the manufacturer's instructions. About 10 ng of extracted DNA was amplified by PCR using a fluorescently labeled forward primer 27F (5′-(6FAM) AGAGTTTGATCCTGGCTCA G-3′, SEQ ID NO: 1) and unlabeled reverse primer 355R′ (5′-GCTGCCTCCCGTAGGAGT-3′, SEQ ID NO: 2). Both primers are universal primers for Bacteria (23). The LH-PCR products were diluted according to their intensity on agarose gel electrophoresis and mixed with ILS-600 size standards (Promega) and HiDi Formamide (Applied Biosystems, Foster City, Calif.). The diluted samples were then separated on a ABI 3130x1 fluorescent capillary sequencer (Applied Biosystems, Foster City, Calif.) and processed using the Genemapper™ software package (Applied Biosystems, Foster City, Calif.). Normalized peak areas were calculated using a custom PERL script and operational taxonomic units (OTUs) constituting less than 1% of the total community from each sample were eliminated from the analysis to remove the variable low abundance components within the communities.
MTPS: We employed the MTPS process to characterize the microbiome from the fecal and biopsy samples. Specifically, we have generated a set of 96 emulsion PCR fusion primers that contain the 454 emulsion PCR linkers on the 27F and 355R primers and a different 8 base “barcode” between the A adapter and 27F primer. Thus, each fecal sample was amplified with unique bar-coded forward 16S rRNA primers and then up to 96 samples were pooled and subjected to emulsion PCR and pyrosequenced using a GS-FLX pyrosequencer (Roche). Data from each pooled sample were “deconvoluted” by sorting the sequences into bins based on the barcodes using custom PERL scripts. Thus, we were able to normalize each sample by the total number of reads from each barcode. We have noted that ligating tagged primers to PCR amplicons distorts the abundances of the communities and thus it is critical to incorporate the tags during the original amplification step.
Microbiome Community Analysis: We identified the taxa present in each sample using the Bayesian analysis tool in Version 10 of the Ribosomal Database Project (RDP10). […] We chose this cutoff because of our a priori assumption that genera present in <1% of the community vary between individuals and have minimal contribution to the functionality of that community and 2,000 reads per sample will only reliably identify community components that are greater than 1% in abundance (16). […]

SMILES: OC[C@H]1O[C@@H](O[C@@H]2[C@@H](CO)OC(O)(CO)[C@H]2O)[C@H](O)[C@@H](O)[C@H]1O (mixture of isomers) [lactulose]
- block design ([1]; high = good): 19.8 score
- digit symbol ([1]; high = good): 38 score
- targets ([1]; high = good): 90%
- line tracing errors ([1]; high = poor): 44.9
- line tracing time ([1]; high = poor): 127.3
- lures ([1]; high = poor): 16.9 responses
- number connection-A ([1]; high = poor): 52.25 s
- number connection-B ([1]; high = poor): 145.8 s
- serial dotting ([1]; high = poor): 84.0 s
- Lachnospiraceae_Roseburia ([2]; p 0.005): 1.9 % abundance
- Incertae Sedis XIV_Blautia ([2]; p 0.008): 4.2 % abundance
- Propionibacteriaceae_Propionibacterium ([2]; p 0.03): 1.1 % abundance
- Rikenellaceae_Alistipes ([2]; p 0.03): 1.8 % abundance
- Veillonellaceae_Other ([2]; p 0.03): 1.1 % abundance

Reference: patent US20140179726A1, “GUT MICROFLORA AS BIOMARKERS FOR THE PROGNOSIS OF CIRRHOSIS AND BRAIN DYSFUNCTION” (priority 2011, published 2014)
